According to paper PMC4535766, “Antiprotozoal Activity Profiling of Approved Drugs: A Starting Point toward Drug Repositioning” (PLoS ONE, 2015):
Like-named read-outs stand apart in the source and are kept apart here.

Legend:
[1] = system: T. b. rhodesiense strain STIB 900, trypomastigotes; experiment: In vitro activity against T. b. rhodesiense, serial drug dilution assay; details: for IC50: Trypanosoma brucei; for Activity against T. b. rhodesiense (in words): in vitro
Experimental: (§1) Drug stock solutions (10mg/ml) were in DMSO (100%). […] Selectivity index (SI) was calculated as IC50 L6 cells/IC50 parasite.

[2] = Cytotoxicity on macrophages infected with L. donovani; type: cell-based, mouse; details: mouse
[3] = system: axenic amastigotes of L. donovani, strain MHOM-ET-67/L82; experiment: In vitro activity against L. donovani axenic amastigotes, serial drug dilution assay; type: cell-based, Leishmania donovani; details: Leishmania donovani
Experimental: as §1

P. falciparum strain K1 = experiment: In vitro activity against P. falciparum, serial drug dilution assay; details: Plasmodium falciparum
Experimental: as §1

in vitro = details: rat
Experimental: as §1

[4] = system: T. cruzi, strain Tulahuen C4, intracellular amastigotes; experiment: microbe, parasite or virus in culture; details: for IC50: Trypanosoma cruzi, TULAHUEN
Experimental: as §1

[5] = system: intracellular amastigotes of L. donovani strain MHOM-ET-67/L82; experiment: Activity against Leishmania donovani intracellular amastigotes in mouse peritoneal macrophages; details: Leishmania donovani, Peritoneal macrophage, in Mus musculus
Experimental: After 24 h 1.2 x 10^5 amastigote L. donovani in 100 μl were added. The amastigotes were taken from an axenic culture grown at pH 5.4. Four hours later, the medium containing free amastigote forms was removed and replaced by fresh medium. The next day the medium was replaced by medium with or without a serial drug dilution of seven 3-fold dilution steps covering a range from 30 to 0.04 μg/ml. Parasite growth in the presence of the drug was compared to control wells. After 96 h of incubation, the medium was removed and the slides fixed with methanol for 10 min followed by staining with a 10% Giemsa solution. Infected and non-infected macrophages were counted for the control cultures and those exposed to the serial drug dilutions. The infection rates were determined. The results were expressed as a percentage reduction in parasite burden compared to control wells, and the IC50 was calculated by linear regression analysis. The collection of mouse peritoneal macrophages was done at the Swiss Tropical and Public Health Institute (Basel) according to the rules and regulations for the protection of animal rights ("Tierschutzverordnung") of the Swiss "Bundesamt für Veterinärwesen".

[6] = macrophages infected with L. donovani, read-out: IC50 Cytotox. mac.inf.
[7] = axenic amastigotes, strain MHOM-ET-67/L82, means of two independent assays, read-out: IC50 L. don. axen.
[8] = 96 h, read-out: IC50 L. don. intracell
[9] = infected macrophages, read-out: Cytotox. mac.inf. IC50
[10] = L. donovani axenic amastigotes, read-out: L. don. axen. IC50
[11] = read-out: L. don. intracell IC50

| Compound | IC50 ([1]; read-out: IC50 T. b. rhod.) [µM] | IC50 at 96 h [2, 6] [µM] | IC50 [3, 7] [µM] | IC50 (P. falciparum strain K1; K1, read-out: IC50 P. falc. K1) [µM] | IC50 (in vitro; IC50 Cytotox. L6) [µM] | IC50 ([4]; read-out: IC50 T. cruzi) [µM] | IC50 [5, 8] [µM] | IC50 ([1]; read-out: T. b. rhod. IC50) [µM] | IC50 at 96 h [2, 9] [µM] | IC50 [3, 10] [µM] | IC50 (P. falciparum strain K1; K1, read-out: P. falc. IC50) [µM] | IC50 (in vitro) [µM] | IC50 ([4]; read-out: T. cruzi IC50) [µM] | IC50 [5, 11] [µM] | IC50 (in vitro; Cytotox. L6 IC50) [µM] | IC50 at 96 h ([2]; mouse peritoneal macrophages infected with L. donovani, macrophages infected with L. donovani, read-out: IC50 Cytotox. mac.inf.) [µM] | IC50 (in vitro; L6 cells, IC50 Cytotox. L6, L6 cells, means of two independent assays) [µM] | Activity against T. b. rhodesiense (in words) [1] | selectivity ratio ([4]; rat, Selectivity index: IC50 Cytotoxicity L6/ IC50 T. cruzi) |
| --- | --- | --- | --- | --- | --- | --- | --- | --- | --- | --- | --- | --- | --- | --- | --- | --- | --- | --- | --- |
| CCc1nc(N)nc(N)c1-c1ccc(Cl)cc1 [Pyrimethamine] | 6.75 | > 12.1 | 278 | 9.85 | 2.51 | 5.71 | > 12.1 |  |  |  |  |  |  |  |  |  |  |  |  |
| NC(=O)c1cccnc1 [Nicotinamide] | > 737 | > 246 | > 737 | > 40.9 | > 737 | > 737 | > 246 |  |  |  |  |  |  |  |  |  |  |  |  |
| COc1ccc(Cl)cc1C(=O)NCCc1ccc(S(=O)(=O)NC(=O)NC2CCCCC2)cc1 [Glybenclamide] |  |  |  |  |  |  |  | 87.7 | > 60.7 | 9.8 | 38.3 | 116 | 93.9 | > 60.7 |  |  |  |  |  |
| O=C(O)c1cn(C2CC2)c2cc(N3CCNCC3)c(F)cc2c1=O [Ciprofloxacin] |  |  |  |  |  |  |  | 35.9 | > 90.5 | > 302 | 13.2 |  | 92 | > 90.5 | 118 |  |  |  |  |
| CC(Cc1cccc(C(F)(F)F)c1)NCCOC(=O)c1ccccc1 (stereo not shown) [Benfluorex] | 21.1 | > 85.4 | 243 | 6.52 | 49.1 | 73.7 | 54.4 |  |  |  |  |  |  |  |  |  |  |  |  |
| Cc1c(O)cccc1C(=O)N[C@@H](CSc1ccccc1)[C@H](O)CN1C[C@H]2CCCC[C@H]2C[C@H]1C(=O)NC(C)(C)C [Nelfinavir] | 20.6 | > 52.8 | 9.62 | 10.4 | 12.1 | 10.2 | 20.2 |  |  |  |  |  |  |  |  |  |  |  |  |
| COC(=O)N[C@H](C(=O)N[C@@H](Cc1ccccc1)[C@@H](O)CN(Cc1ccc(-c2ccccn2)cc1)NC(=O)[C@@H](NC(=O)OC)C(C)(C)C)C(C)(C)C [Atazanavir (Sulfate), Atazanavir] | 12.7 |  | 24.1 | 7.95 |  | 33.3 | > 37.5 |  |  |  |  |  |  |  |  | > 37.5 | 46.5 |  |  |
| CCn1cc(C(=O)O)c(=O)c2cc(F)c(N3CCNCC3)nc21 [Enoxacin] |  |  |  |  |  |  |  | 113 | > 93.7 | > 312 | 76.8 |  | 163 | > 93.7 | 25 |  |  |  |  |
| CO[C@H]1/C=C/O[C@@]2(C)Oc3c(C)c(O)c4c(c3C2=O)C2=NC3(CCN(CC(C)C)CC3)NC2=C(NC(=O)/C(C)=C\C=C\[C@H](C)[C@H](O)[C@@H](C)[C@@H](O)[C@@H](C)[C@H](OC(C)=O)[C@@H]1C)C4=O [Rifabutin] |  |  |  |  |  |  |  | 12.6 | > 35.4 | 56.4 | 1.59 |  | 27.5 | > 35.4 | 60.9 |  |  | devoid of antitrypanosomal activity |  |
| CCN(CCCCOC(=O)c1ccc(OC)c(OC)c1)C(C)Cc1ccc(OC)cc1 (stereo not shown) [Mebeverine] | 54.2 | > 69.8 | > 210 | 1.74 | 70.8 | 3.89 | 54.9 |  |  |  |  |  |  |  |  |  |  |  | 18 |
| CN/C(=N/CCSCc1nc[nH]c1C)NC#N [Cimetidine] | > 396 | > 119 | > 396 | 29.2 | 302 | 351 | > 119 |  |  |  |  |  |  |  |  |  |  |  |  |
| CC(=O)OCC(CCn1cnc2cnc(N)nc21)COC(C)=O [Famciclovir] | 225 | > 93.4 | > 311 | > 156 | 180 | 207 | > 93.4 |  |  |  |  |  |  |  |  |  |  |  |  |
| Cc1ncc([N+](=O)[O-])n1CCO [Metronidazole] | 338 | > 175 | 491 | 277 | 339 | 279 | > 175 |  |  |  |  |  |  |  |  |  |  | inactive |  |
